Experimental data: patent US8080657B2, “Compounds of reverse turn mimetics and the use thereof” (Choongwae Pharma Corporation, priority 2008, dated 2011)
Where two headings read alike, the source gives them in different places.

System: Wnt signaling
Assay: TopFlash reporter gene bioassay in SW480 cells
Format: cell-based
Conditions: Homo sapiens, read-out: RGA, IC50 (μM) TopF
[1] = SW480, TopFlash reporter gene assay, inhibition of Wnt signaling

SMILES | IC50 [1] | IC50 (SW480)
C=CCN1CC(=O)N2[C@@H](Cc3ccc(O)cc3)C(=O)N(Cc3csc4cc(NC(=O)OC)ccc34)C[C@@H]2N1C(=O)NCc1ccccc1 [compound 45] | 0.67 ± 0.09 µM | 
C=CCN1CC(=O)N2[C@@H](Cc3ccc(O)cc3)C(=O)N(Cc3cccc(C(=O)OC)c3)C[C@@H]2N1C(=O)NCc1ccccc1 [compound 46] | 0.69 ± 0.15 µM | 
C=CCN1CC(=O)N2[C@@H](Cc3ccc(O)cc3)C(=O)N(Cc3cccc4c3ccn4S(=O)(=O)c3ccc(C)cc3)C[C@@H]2N1C(=O)NCc1ccccc1 [compound 47] | 0.69 ± 0.19 µM | 
C=CCN1CC(=O)N2[C@@H](Cc3ccc(O)cc3)C(=O)N(Cc3cccc(C(=O)NC)n3)C[C@@H]2N1C(=O)NCc1ccccc1 [compound 48] | 0.7 ± 0.26 µM | 
C=CCN1CC(=O)N2[C@@H](Cc3ccc(O)cc3)C(=O)N(Cc3cccc4[nH]cnc34)C[C@@H]2N1C(=O)NCc1ccccc1 [compound 49] | 0.71 ± 0.43 µM | 
C=CCN1CC(=O)N2[C@@H](Cc3ccc(NC=O)cc3)C(=O)N(Cc3cccc4scnc34)C[C@@H]2N1C(=O)NCc1ccccc1 [compound 50] | 0.72 ± 0.075 µM | 
C=CCN1CC(=O)N2[C@@H](Cc3ccc(O)cc3)C(=O)N(Cc3csc4cc(NCCC(C)(C)C)ccc34)C[C@@H]2N1C(=O)NCc1ccccc1 [compound 51] | 0.72 ± 0.15 µM | 
C=CCN1CC(=O)N2[C@@H](Cc3ccc(O)cc3)C(=O)N(Cc3cccc(Br)c3)C[C@@H]2N1C(=O)NCc1ccccc1 [compound 52] | 0.73 ± 0.09 µM | 
C=CCN1CC(=O)N2[C@@H](Cc3ccc(O)cc3)C(=O)N(Cc3cccc(C(=O)NCc4cccs4)c3)C[C@@H]2N1C(=O)NCc1ccccc1 [compound 53] | 0.73 ± 0.03 µM | 
C=CCN1CC(=O)N2[C@@H](Cc3ccc(O)cc3)C(=O)N(Cc3csc4ccc(NCc5ccccc5)cc34)C[C@@H]2N1C(=O)NCc1ccccc1 [compound 55] | 0.74 ± 0.08 µM | 
C=CCN1CC(=O)N2[C@@H](Cc3ccc(O)cc3)C(=O)N(Cc3cccc(C(=O)NCc4ccccc4)c3)C[C@@H]2N1C(=O)NCc1ccccc1 [compound 56] | 0.74 ± 1.46 µM | 
C=CCN1CC(=O)N2[C@@H](Cc3ccc(O)cc3)C(=O)N(Cc3cccc(NC=O)c3)C[C@@H]2N1C(=O)NCc1ccccc1 [compound 57] | 0.76 ± 0.12 µM | 
C=CCN1CC(=O)N2[C@@H](Cc3ccc(O)cc3)C(=O)N(Cc3ccccc3OC(F)F)C[C@@H]2N1C(=O)NCc1ccccc1 [compound 58] | 0.78 ± 0.13 µM | 
C=CCN1CC(=O)N2[C@@H](Cc3ccc(O)cc3)C(=O)N(Cc3csc4c([N+](=O)[O-])cccc34)C[C@@H]2N1C(=O)NCc1ccccc1 [compound 59] | 0.78 ± 0.15 µM | 
C=CCN1CC(=O)N2[C@@H](Cc3ccc(O)cc3)C(=O)N(Cc3cccc(-c4cccc(C(N)=O)c4)c3)C[C@@H]2N1C(=O)NCc1ccccc1 [compound 60] | 0.79 ± 0.1 µM | 
C=CCN1CC(=O)N2C(Cc3ccc(O)cc3)C(=O)N(Cc3cccc(-c4ccccn4)c3)C[C@@H]2N1C(=O)NCc1ccccc1 (some centres unmarked) [compound 61] | 0.8 ± 0.07 µM | 
C=CCN1CC(=O)N2[C@@H](Cc3ccc(O)cc3)C(=O)N(Cc3cccc(-c4ccc(N5CCOCC5)nc4)c3)C[C@@H]2N1C(=O)NCc1ccccc1 [compound 62] | 0.81 ± 0.15 µM | 
C=CCN1CC(=O)N2[C@@H](Cc3ccc(O)cc3)C(=O)N(Cc3cccc4c(C)c(-c5ccccc5F)n(S(=O)(=O)c5ccccc5)c34)C[C@@H]2N1C(=O)NCc1ccccc1 [compound 63] | 0.82 ± 0.25 µM | 
C=CCN1CC(=O)N2[C@@H](Cc3ccc(O)cc3)C(=O)N(Cc3cccc4ccn(S(=O)(=O)c5ccc(C)cc5)c34)C[C@@H]2N1C(=O)NCc1ccccc1 [compound 64] | 0.82 ± 0.33 µM | 

SMILES | IC50 [1] | IC50 (SW480)
C=CCN1CC(=O)N2[C@@H](Cc3ccc(O)cc3)C(=O)N(Cc3cccc4cc[nH]c34)C[C@@H]2N1C(=O)NCc1ccccc1 [compound 65] | 0.83 ± 0.22 µM | 
C=CCN1CC(=O)N2[C@@H](Cc3ccc(O)cc3)C(=O)N(Cc3csc4cc(NCCC)ccc34)C[C@@H]2N1C(=O)NCc1ccccc1 [compound 66] | 0.84 ± 0.09 µM | 
C=CCN1CC(=O)N2[C@@H](Cc3ccc(O)cc3)C(=O)N(Cc3cn(C)c4ccccc34)C[C@@H]2N1C(=O)NCc1ccccc1 [compound 67] | 0.85 ± 0.089 µM | 
C=CCN1CC(=O)N2[C@@H](Cc3ccc(O)cc3)C(=O)N(Cc3csc4cc(N)ccc34)C[C@@H]2N1C(=O)NCc1ccccc1 [compound 68] | 0.86 ± 0.09 µM | 
C=CCN1CC(=O)N2[C@@H](Cc3ccc(O)cc3)C(=O)N(Cc3ccc(F)c(C#N)c3)C[C@@H]2N1C(=O)NCc1ccccc1 [compound 69] | 0.87 ± 0.32 µM | 
C=CCN1CC(=O)N2[C@@H](Cc3ccc(O)cc3)C(=O)N(Cc3ccc(F)c(OCCN4CCOCC4)c3)C[C@@H]2N1C(=O)NCc1ccccc1 [compound 70] | 0.9 ± 0.2 µM | 
C=CCN1CC(=O)N2[C@@H](Cc3ccc(O)cc3)C(=O)N(Cc3cccc4c3ncn4CCC)C[C@@H]2N1C(=O)NCc1ccccc1 [compound 71] | 0.9 ± 0.08 µM | 
C=CCN1CC(=O)N2[C@@H](Cc3ccc(O)cc3)C(=O)N(Cc3cccc(-c4ccsc4)c3)C[C@@H]2N1C(=O)NCc1ccccc1 [compound 72] | 0.9 ± 0.13 µM | 
C=CCN1CC(=O)N2[C@@H](Cc3ccc(O)cc3)C(=O)N(Cc3cccc(C(C)=O)c3)C[C@@H]2N1C(=O)NCc1ccccc1 [compound 73] | 0.9 ± 0.27 µM | 
C=CCN1CC(=O)N2[C@@H](Cc3ccc(O)cc3F)C(=O)N(Cc3ccc(F)cc3F)C[C@@H]2N1C(=O)NCc1ccccc1 [compound 74] | 0.91 ± 0.11 µM | 
C=CCN1CC(=O)N2[C@@H](Cc3ccc(O)cc3)C(=O)N(Cc3csc4cc([N+](=O)[O-])ccc34)C[C@@H]2N1C(=O)NCc1ccccc1 [compound 75] | 0.92 ± 0.14 µM | 
C=CCCNC(=O)c1cccc(CN2C[C@H]3N(C(=O)CN(CC=C)N3C(=O)NCc3ccccc3)[C@@H](Cc3ccc(O)cc3)C2=O)c1 [compound 76] | 0.94 ± 0.04 µM | 
C=CCN1CC(=O)N2[C@@H](Cc3ccc(OP(=O)(O)O)cc3)C(=O)N(Cc3ccc(F)c4scnc34)C[C@@H]2N1C(=O)NCc1ccc2c(c1)OCO2 [compound 77] |  | 0.94 ± 0.07 µM
C=CCN1CC(=O)N2[C@@H](Cc3ccc(O)cc3)C(=O)N(Cc3ccccc3N)C[C@@H]2N1C(=O)NCc1ccccc1 [compound 78] | 0.95 ± 0.15 µM | 
C=CCN1CC(=O)N2[C@@H](Cc3ccc(O)cc3)C(=O)N(Cc3cccc(OC)c3OCC3CC3)C[C@@H]2N1C(=O)NCc1ccccc1 [compound 79] | 0.95 ± 0.21 µM | 
C=CCN1CC(=O)N2[C@@H](Cc3ccc(O)cc3)C(=O)N(Cc3ccc(F)c4scnc34)C[C@@H]2N1C(=O)NCc1ccc(F)c(F)c1 [compound 80] | 0.96 ± 0.13 µM | 
C=CCN1CC(=O)N2[C@@H](Cc3ccc(O)cc3)C(=O)N(Cc3cccc(-c4ccccc4OC)n3)C[C@@H]2N1C(=O)NCc1ccccc1 [compound 81] | 0.97 ± 0.18 µM | 
C=CCN1CC(=O)N2[C@@H](Cc3ccc(O)cc3)C(=O)N(Cc3cccc(-c4cccc(N)c4)c3)C[C@@H]2N1C(=O)NCc1ccccc1 [compound 82] | 0.99 ± 0.14 µM | 
C=CCN1CC(=O)N2[C@@H](Cc3ccc(O)cc3)C(=O)N(Cc3csc4ccc(NC(C)=O)cc34)C[C@@H]2N1C(=O)NCc1ccccc1 [compound 85] | 1 ± 0.22 µM | 

SMILES | IC50 [1] | IC50 (SW480)
C=CCN1CC(=O)N2[C@@H](Cc3ccc(O)cc3)C(=O)N(Cc3cccc4c(=O)ccoc34)C[C@@H]2N1C(=O)NCc1ccccc1 [compound 87] | 1.01 ± 0.24 µM | 
C=CCN1CC(=O)N2[C@@H](Cc3ccc(O)cc3)C(=O)N(Cc3cccc(C(C)(C)C)c3OC)C[C@@H]2N1C(=O)NCc1ccccc1 [compound 89] | 1.03 ± 0.11 µM | 
C=CCOc1c(CN2C[C@H]3N(C(=O)CN(CC=C)N3C(=O)NCc3ccccc3)[C@@H](Cc3ccc(O)cc3)C2=O)cccc1OC [compound 90] |  | 1.03 ± 0.16 µM
C=CCN1CC(=O)N2[C@@H](Cc3ccc(O)cc3)C(=O)N(Cc3cccc(C(=O)NCCOC)c3)C[C@@H]2N1C(=O)NCc1ccccc1 [compound 91] | 1.04 ± 0.18 µM | 
C=CCN1CC(=O)N2[C@@H](Cc3ccc(OP(=O)(O)O)cc3)C(=O)N(Cc3cccc4ccnn34)C[C@@H]2N1C(=O)NCc1ccccc1 [compound 92] |  | 1.04 ± 0.18 µM
C=CCN1CC(=O)N2[C@@H](Cc3ccc(O)cc3)C(=O)N(Cc3cccc4c3nc(C(F)(F)F)n4C)C[C@@H]2N1C(=O)NCc1ccccc1 [compound 93] | 1.07 ± 0.2 µM | 
C=CCN1CC(=O)N2[C@@H](Cc3ccc(OP(=O)(O)O)cc3)C(=O)N(Cc3cccc(N4CCCC4=O)c3)C[C@@H]2N1C(=O)NCc1ccccc1 [compound 94] |  | 1.09 ± 0.16 µM
C=CCN1CC(=O)N2[C@@H](Cc3ccc(O)cc3)C(=O)N(Cc3cccc(C4CC4)n3)C[C@@H]2N1C(=O)NCc1ccccc1 [compound 95] | 1.1 ± 0.12 µM | 
C=CCN1CC(=O)N2[C@@H](Cc3ccc(O)cc3)C(=O)N(Cc3ccccc3N3CCCC3)C[C@@H]2N1C(=O)NCc1ccccc1 [compound 96] | 1.11 ± 0.25 µM | 
C=CCN1CC(=O)N2[C@@H](Cc3ccc(O)cc3)C(=O)N(Cc3cccc(C#N)c3F)C[C@@H]2N1C(=O)NCc1ccccc1 [compound 97] | 1.13 ± 0.05 µM | 
C=CCN1CC(=O)N2[C@@H](Cc3ccc(O)cc3)C(=O)N(Cc3cccc(-c4cccnc4OC)c3)C[C@@H]2N1C(=O)NCc1ccccc1 [compound 98] | 1.17 ± 0.15 µM | 
C=CCN1CC(=O)N2[C@@H](Cc3ccc(O)cc3)C(=O)N(Cc3cccc4c3ncn4C(=O)CNC(=O)OC(C)(C)C)C[C@@H]2N1C(=O)NCc1ccccc1 [compound 99] | 1.17 ± 0.27 µM | 
C=CCN1CC(=O)N2[C@@H](Cc3ccc(O)cc3)C(=O)N(Cc3csc4ccc(N)cc34)C[C@@H]2N1C(=O)NCc1ccccc1 [compound 100] | 1.21 ± 0.14 µM | 
C=CCN1CC(=O)N2[C@@H](Cc3ccc(O)cc3)C(=O)N(Cc3cccc(C(=O)NCC4CCCCC4)c3)C[C@@H]2N1C(=O)NCc1ccccc1 [compound 101] | 1.24 ± 0.07 µM | 
C=CCN1CC(=O)N2[C@@H](Cc3ccc(O)cc3)C(=O)N(Cc3cccc(NC(C)=O)c3)C[C@@H]2N1C(=O)NCc1ccccc1 [compound 102] | 1.25 ± 0.21 µM | 
C=CCN1CC(=O)N2[C@@H](Cc3ccc(O)cc3)C(=O)N(Cc3ccc(F)c4scnc34)C[C@@H]2N1C(=O)NCc1ccc(C)cc1 [compound 103] | 1.26 ± 0.19 µM | 
C=CCN1CC(=O)N2[C@@H](Cc3ccc(O)cc3)C(=O)N(Cc3ccc(F)c4scnc34)C[C@@H]2N1C(=O)NCCc1cccs1 [compound 104] | 1.27 ± 0.1 µM | 
C=CCN1CC(=O)N2[C@@H](Cc3ccc(O)cc3)C(=O)N(Cc3cccc(OC)c3OS(=O)(=O)c3ccc(Cl)cc3)C[C@@H]2N1C(=O)NCc1ccccc1 [compound 105] | 1.27 ± 0.24 µM | 
